Patent US20070049564A1 (Wyeth, priority 2005, published 2007)
Converted amounts (≈) assume the structure as drawn. Where two headings read alike, the source gives them in different places.

Legend:
[1] = test system: E. coli GC 2236; test: MIC, broth microdilution; conditions: Escherichia coli, GC2236, E. coli GC 2236
[2] = test system: E. coli GC 2231; test: MIC, broth microdilution; conditions: Escherichia coli, GC2231, E. coli GC 2231
[3] = test system: E. coli GC 2232; test: MIC, broth microdilution; conditions: Escherichia coli, GC2232, E. coli GC 2232
[4] = test system: E. coli GC 2233; test: MIC, broth microdilution; conditions: Escherichia coli, GC2233, E. coli GC 2233
[5] = test system: E. coli GC 2234; test: MIC, broth microdilution; conditions: Escherichia coli, GC2234, E. coli GC 2234
[6] = test system: E. coli GC 2270; test: MIC, broth microdilution; conditions: Escherichia coli, GC2270, E. coli GC 2270
[7] = test system: E. coli GC 2271; test: MIC, broth microdilution; conditions: Escherichia coli, GC2271, E. coli GC 2271
[8] = test system: E. coli GC 3226; test: MIC, broth microdilution; conditions: Escherichia coli, GC3226, E. coli GC 3226
[9] = test system: E. coli GC 2203; test: MIC, broth microdilution; conditions: Escherichia coli, GC2203, E. coli GC 2203
Method: (§1) Antimicrobial susceptibility testing. The in vitro activities of the antibiotics are determined by the broth microdilution method as recommended by the National Committee for Clinical Laboratory Standards (NCCLS) (1). Mueller-Hinton II broth (MHBII)(BBL Cockeysville, Md.) is the medium employed in the testing procedures. Microtiter plates containing serial dilutions of each antimicrobial agent are inoculated with each organism to yield the appropriate density (10^5 CFU/ml) in a 100 μl final volume. The plates are incubated for 18-22 hours at 35° C. in ambient air. […] Standard Pharmacological Test Procedures
(§2) Presented in Tables I-XIII are representative compounds of Formula I which were evaluated against a panel of 40 selected gram-positive and gram-negative bacteria strains by pre-incubation in water, mouse serum or human serum. Representative compounds were first incubated in mouse serum for an hour prior to the in vitro testing against a panel of selected gram-positive and gram-negative bacteria strains. All compounds were also pre-incubated in water for an hour prior to testing as control. Representative compounds of Formula I were incubated in human serum prior to MIC determination.

[10] = test system: P. aeruginosa GC 2214; test: MIC, broth microdilution; conditions: Pseudomonas aeruginosa, GC2214, P. aeruginosa GC 2214
[11] = test system: S. aureus GC 6466; test: MIC, broth microdilution; conditions: Staphylococcus aureus, GC6466, S. aureus GC 6466
[12] = test system: S. aureus GC 2216; test: MIC, broth microdilution; conditions: Staphylococcus aureus, GC2216, S. aureus GC 2216
Method: as §1, §2

[13] = test system: S. aureus GC 6335; test: MIC, broth microdilution; conditions: Staphylococcus aureus, GC6335, S. aureus GC 6335
[14] = test system: S. aureus GC 6469; test: MIC, broth microdilution; conditions: Staphylococcus aureus, GC6469, S. aureus GC 6469
[15] = test system: E. faecalis GC 2265; test: MIC, broth microdilution; conditions: Enterococcus faecalis, GC2265, E. faecalis GC 2265
[16] = test system: E. faecium GC 4556; test: MIC, broth microdilution; conditions: Enterococcus faecium, GC4556, E. faecium GC 4556
[17] = test system: E. faecium GC 2243; test: MIC, broth microdilution; conditions: Enterococcus faecium, GC2243, E. faecium GC 2243
[18] = test system: S. pyogenes GC 4563; test: MIC, broth microdilution; conditions: Streptococcus pyogenes, GC4563, S. pyogenes GC 4563
[19] = test system: E. coli; test: Range of MIC for E. coli strains; conditions: Escherichia coli
[20] = test system: Staph.; test: Range of MIC for Staph. strains, including MRSA; conditions: Staphylococcus aureus, MRSA
[21] = 20 h, read-out: Range of MIC, E. coli (Mouse Serum)
[22] = read-out: Minimum inhibitory concentration (MIC), E. coli (mouse serum)
[23] = read-out: Minimum inhibitory concentration (MIC), E. coli (water)
[24] = read-out: Range of MIC, E. coli (Water)
[25] = read-out: Minimum inhibitory concentration (MIC), Staph. (mouse serum)
[26] = read-out: Minimum inhibitory concentration (MIC), Staph. (water)
[27] = read-out: Range of MIC, Staph (Mouse Serum)
[28] = read-out: Range of MIC, Staph (Water)

What does the source list for `CCCCN(CC(=O)Nc1cc(N(C)C)c2c(c1O)C(=O)C1=C(O)[C@]3(O)C(=O)C(C(N)=O)=C(O)[C@@H](N(C)C)[C@@H]3C[C@@H]1C2)C(=O)OCOC(=O)Cc1ccccc1` [Example 12, ({[(2-{[(5aR,6aS,7S,10aS)-9-(aminocarbonyl)-4,7-bis(dimethylamino)-1,8,10a,11-tetrahydroxy-10,12-dioxo-5,5a,6,6a,7,10,10a,12-octahydrotetracen-2-yl]amino}-2-oxoethyl)(butyl)amino]carbonyl}oxy)methyl phenylacetate]?
MIC ([1]; Mouse Serum pre-incubation): 1 µg/mL (≈ 1.29 µM); MIC ([1]; Water pre-incubation): 16 µg/mL (≈ 20.6 µM); MIC ([2]; Mouse Serum pre-incubation): 2 µg/mL (≈ 2.57 µM); MIC ([2]; Water pre-incubation): 64 µg/mL (≈ 82.3 µM); MIC ([3]; Mouse Serum pre-incubation): 0.5 µg/mL (≈ 0.643 µM); MIC ([3]; Water pre-incubation): 32 µg/mL (≈ 41.1 µM); MIC ([4]; Mouse Serum pre-incubation): 1 µg/mL (≈ 1.29 µM); MIC ([4]; Water pre-incubation): 32 µg/mL (≈ 41.1 µM); MIC ([5]; Mouse Serum pre-incubation): 1 µg/mL (≈ 1.29 µM); MIC ([5]; Water pre-incubation): 16 µg/mL (≈ 20.6 µM); MIC ([6]; Mouse Serum pre-incubation): 0.5 µg/mL (≈ 0.643 µM); MIC ([6]; Water pre-incubation): 32 µg/mL (≈ 41.1 µM); MIC ([7]; Mouse Serum pre-incubation): 0.5 µg/mL (≈ 0.643 µM); MIC ([7]; Water pre-incubation): 16 µg/mL (≈ 20.6 µM); MIC ([8]; Mouse Serum pre-incubation): 2 µg/mL (≈ 2.57 µM); MIC ([8]; Water pre-incubation): 64 µg/mL (≈ 82.3 µM); MIC ([9]; Mouse Serum pre-incubation): 1 µg/mL (≈ 1.29 µM); MIC ([9]; Water pre-incubation): 32 µg/mL (≈ 41.1 µM); MIC ([10]; Mouse Serum pre-incubation): 32 µg/mL (≈ 41.1 µM); MIC ([10]; Water pre-incubation): > 64 µg/mL; MIC ([11]; Mouse Serum pre-incubation): 0.5 µg/mL (≈ 0.643 µM); MIC ([11]; Water pre-incubation): 1 µg/mL (≈ 1.29 µM); MIC ([12]; Mouse Serum pre-incubation): 1 µg/mL (≈ 1.29 µM); MIC ([12]; Water pre-incubation): 4 µg/mL (≈ 5.14 µM); MIC ([13]; Mouse Serum pre-incubation): 1 µg/mL (≈ 1.29 µM); MIC ([13]; Water pre-incubation): 2 µg/mL (≈ 2.57 µM); MIC ([14]; Mouse Serum pre-incubation): 4 µg/mL (≈ 5.14 µM); MIC ([14]; Water pre-incubation): 16 µg/mL (≈ 20.6 µM); MIC ([15]; Mouse Serum pre-incubation): 2 µg/mL (≈ 2.57 µM); MIC ([15]; Water pre-incubation): 8 µg/mL (≈ 10.3 µM); MIC ([16]; Mouse Serum pre-incubation): 1 µg/mL (≈ 1.29 µM); MIC ([16]; Water pre-incubation): 4 µg/mL (≈ 5.14 µM); MIC ([17]; Mouse Serum pre-incubation): 0.5 µg/mL (≈ 0.643 µM); MIC ([17]; Water pre-incubation): 4 µg/mL (≈ 5.14 µM); MIC ([18]; Mouse Serum pre-incubation): 0.12 µg/mL (≈ 0.154 µM); MIC ([18]; Water pre-incubation): 0.25 µg/mL (≈ 0.321 µM); MIC [19, 21]: 0.5 to 2 µg/mL (≈ 0.643 to 2.57 µM); MIC [19, 22]: 0.5 to 2 µg/mL (≈ 0.643 to 2.57 µM); MIC [19, 23]: 16 to 64 µg/mL (≈ 20.6 to 82.3 µM); MIC [19, 24]: 16 to 64 µg/mL (≈ 20.6 to 82.3 µM); MIC [20, 25]: 0.5 to 4 µg/mL (≈ 0.643 to 5.14 µM); MIC [20, 26]: 1 to 16 µg/mL (≈ 1.29 to 20.6 µM); MIC [20, 27]: 0.5 to 4 µg/mL (≈ 0.643 to 5.14 µM); MIC [20, 28]: 1 to 16 µg/mL (≈ 1.29 to 20.6 µM)

Which results are given for `CCCCN(CC(=O)Nc1cc(N(C)C)c2c(c1O)C(=O)C1=C(O)[C@]3(O)C(=O)C(C(N)=O)=C(O)[C@@H](N(C)C)[C@@H]3C[C@@H]1C2)C(=O)OCOC(=O)C(C)(C)C` [Example 13, ({[(2-{[(5aR,6aS,7S,10aS)-9-(aminocarbonyl)-4,7-bis(dimethylamino)-1,8,10a,11-tetrahydroxy-10,12-dioxo-5,5a,6,6a,7,10,10a,12-octahydrotetracen-2-yl]amino}-2-oxoethyl)(butyl)amino]carbonyl}oxy)methyl pivalate]?
MIC ([1]; Mouse Serum pre-incubation): 2 µg/mL (≈ 2.69 µM); MIC ([1]; Water pre-incubation): 8 µg/mL (≈ 10.8 µM); MIC ([2]; Mouse Serum pre-incubation): 2 µg/mL (≈ 2.69 µM); MIC ([2]; Water pre-incubation): 16 µg/mL (≈ 21.5 µM); MIC ([3]; Mouse Serum pre-incubation): 2 µg/mL (≈ 2.69 µM); MIC ([3]; Water pre-incubation): 8 µg/mL (≈ 10.8 µM); MIC ([4]; Mouse Serum pre-incubation): 2 µg/mL (≈ 2.69 µM); MIC ([4]; Water pre-incubation): 8 µg/mL (≈ 10.8 µM); MIC ([5]; Mouse Serum pre-incubation): 1 µg/mL (≈ 1.34 µM); MIC ([5]; Water pre-incubation): 8 µg/mL (≈ 10.8 µM); MIC ([6]; Mouse Serum pre-incubation): 1 µg/mL (≈ 1.34 µM); MIC ([6]; Water pre-incubation): 8 µg/mL (≈ 10.8 µM); MIC ([7]; Mouse Serum pre-incubation): 2 µg/mL (≈ 2.69 µM); MIC ([7]; Water pre-incubation): 8 µg/mL (≈ 10.8 µM); MIC ([8]; Mouse Serum pre-incubation): 2 µg/mL (≈ 2.69 µM); MIC ([8]; Water pre-incubation): 16 µg/mL (≈ 21.5 µM); MIC ([9]; Mouse Serum pre-incubation): 2 µg/mL (≈ 2.69 µM); MIC ([9]; Water pre-incubation): 8 µg/mL (≈ 10.8 µM); MIC ([10]; Mouse Serum pre-incubation): 32 µg/mL (≈ 43 µM); MIC ([10]; Water pre-incubation): > 64 µg/mL; MIC ([11]; Mouse Serum pre-incubation): 1 µg/mL (≈ 1.34 µM); MIC ([11]; Water pre-incubation): 2 µg/mL (≈ 2.69 µM); MIC ([12]; Mouse Serum pre-incubation): 2 µg/mL (≈ 2.69 µM); MIC ([12]; Water pre-incubation): 4 µg/mL (≈ 5.38 µM); MIC ([13]; Mouse Serum pre-incubation): 2 µg/mL (≈ 2.69 µM); MIC ([13]; Water pre-incubation): 4 µg/mL (≈ 5.38 µM); MIC ([14]; Mouse Serum pre-incubation): 4 µg/mL (≈ 5.38 µM); MIC ([14]; Water pre-incubation): 8 µg/mL (≈ 10.8 µM); MIC ([15]; Mouse Serum pre-incubation): 4 µg/mL (≈ 5.38 µM); MIC ([15]; Water pre-incubation): 8 µg/mL (≈ 10.8 µM); MIC ([16]; Mouse Serum pre-incubation): 2 µg/mL (≈ 2.69 µM); MIC ([16]; Water pre-incubation): 8 µg/mL (≈ 10.8 µM); MIC ([17]; Mouse Serum pre-incubation): 2 µg/mL (≈ 2.69 µM); MIC ([17]; Water pre-incubation): 4 µg/mL (≈ 5.38 µM); MIC ([18]; Mouse Serum pre-incubation): 0.5 µg/mL (≈ 0.672 µM); MIC ([18]; Water pre-incubation): 1 µg/mL (≈ 1.34 µM); MIC [19, 21]: 1 to 4 µg/mL (≈ 1.34 to 5.38 µM); MIC [19, 22]: 1 to 4 µg/mL (≈ 1.34 to 5.38 µM); MIC [19, 23]: 8 to 16 µg/mL (≈ 10.8 to 21.5 µM); MIC [19, 24]: 8 to 16 µg/mL (≈ 10.8 to 21.5 µM); MIC [20, 25]: 1 to 4 µg/mL (≈ 1.34 to 5.38 µM); MIC [20, 26]: 2 to 8 µg/mL (≈ 2.69 to 10.8 µM); MIC [20, 27]: 1 to 4 µg/mL (≈ 1.34 to 5.38 µM); MIC [20, 28]: 2 to 8 µg/mL (≈ 2.69 to 10.8 µM)
